Assays:
Assay type in all cases: in vivo, mouse
[1] = tested on: C57BL/6 mice with MI induced by permanent coronary artery ligation; assay: Flow cytometry of myeloid cells and BrdU incorporation on day 2 post-MI
Procedure: Immune cells from blood, spleen, heart and bone-marrow were collected at 2 or 7 days post-MI, and analysed by flow-cytometry. Mice were anesthetized by intraperitoneal injection of a mixture of xylazine (10 mg/kg) and ketamine (100 mg/kg). After 10 minutes, blood was collected by cardiac punction. Thereafter, the spleen was removed and the heart was perfused with 5 ml ice-cold PBS. Perfused hearts were excised and collected into tubes with PBS and kept on ice. Femurs and tibias from each mouse were used to obtain whole bone marrow for analysis. Blood was stained with fluorochrome-labelled antibodies against mouse monocyte and neutrophil markers diluted in MACS buffer (PBS, 10% FCS and 0.5% BSA), followed by treatment with erythrocyte lysis buffer, washing and analysis. Spleens were mashed trough a cell strainer in ice-cold PBS. Hearts were cut into small pieces and placed into tubes containing 2.5 ml digestion cocktail (Collagenase I, 450 U/ml; Collagenase XI, 125 U/ml; DNAase I, 60 U/ml; Hyaluronidase type 1-5, 60 U/ml diluted in PBS containing Ca and Mg) incubated for 1 h at 37° C. with shaking at 220 rpm. Bone marrow was flushed from femur and tibia using ice-cold PBS. Cell suspensions from spleen, heart and bone marrow were filtered through a 40 um cell strainer (BD), treated with erythrocyte lysis buffer, washed and stained. For intracellular staining, cells were fixed, permeabilized and stained. Cell populations were analyzed by flow cytometry in a Gallios Flow Cytometer (Backman Coulter), and the results were analyzed using FlowJo (FlowJo®, LLC; Tree Star). The following anti-mouse antibodies were used for the flow cytometric analysis: anti-CD45 (30-F11), anti-CD11b (M1/70), anti-Ly6C (HK1.4), anti-CD115 (AFS98), anti-Ly6G (1A8), anti-F4/80 (BM8), anti-CCR2 (475301), anti-Ter119 (TER119), anti-Gr1 (RB6-8C5), anti-CD45R/B220 (RA3-6B2), anti-CD3ξ (145-2C11), anti-NK1.1 (PK136), anti-Ly6A/E (Sca-1) (E13-1617), anti-CD117 (c-kit) (2B8), anti-CD48 (HM48.1), anti-CD150/SLAM (TC15-12F12.2), anti-CD16/32 (93), anti-CD34 (MEC14.7) (all from BioLegend, San Diego, Calif., USA); anti-MerTK (DSSMMER) and anti-Nur77 (12.14) (eBioscience).
Mice were injected intraperitoneally with 1 mg BrdU 24 hours prior to organ harvest. Intracellular BrdU staining was performed in hematopoietic stem cells collected from the bone marrow using BrdU flow kits (BD Pharmigen™), according to the manufacturer instructions. BrdU expression was analysed by flow cytometry.
Neutrophilia and monocytosis, elevated circulating numbers of neutrophils and monocytes, have been associated with an adverse prognosis in MI patients. We studied the effects of S100A9 blockade on myeloid cell populations in blood, heart, and myeloid organs on day 2 post-MI, at the peak of the acute inflammatory period. The gating strategy is described in FIG. 8.

[2] = tested on: BALB/c mice with induced myocarditis; assay: Myocarditis induced by cardiac α-myosin peptide: echocardiography; details: 30 mg/kg/day orally from day 7
Procedure: Female BALB/c mice, 8 weeks of age, were purchased from Taconic and housed under 12 h:12 h light:dark cycles with access to food and water ad libitum. To induce myocarditis, all mice were injected subcutaneously (s.c.) with 100 μg murine cardiac a-myosin heavy chain peptide (Ac-RSLKLMATLFSTYASADR-OH, Anaspec) emulsified 1:1 in complete Freund's adjuvant containing 1 mg/mL heat-killed Mycobacterium tuberculosis H37Ra (Sigma-Aldrich), on days 0 and 7 (FIG. 17A). ABR-238901 was administered orally ad-libitum diluted in meglumine buffer (to prevent precipitation in the drinking bottle during the course of the experiment) at a dose of 30 mg/kg/day, starting on day 7 and throughout the course of the experiment (n=9 mice). Fluid intake was closely monitored during the experiment to ensure an appropriate drug dosage. Mice with induced myocarditis drinking meglumine buffer alone ad-libitum were used as controls (n=12 mice). Mice received daily attendance to ensure their well-being. All mouse studies were approved by the Animal Research Ethics Committee of Lund University.
Transthoracic echocardiography was performed as described under Example 7. Cardiac function was evaluated by echocardiography at baseline and at 21, 28 and 35 days after the first injection of murine cardiac a-myosin heavy chain peptide.

[3] = tested on: α-MHC-mCherry mice with MI; assay: Efferocytosis of mCherry+ cardiomyocytes by heart macrophages, 7 days post-MI; details: treatment for 7 days post-MI
Description: All mouse studies were approved by the Animal Research Ethics Committee of Lund University. C57BL/6NRJ mice were purchased from Janvier Labs, C57BL/6-Tg(Nr4a1-EGFP/cre)820Khog/J (Nur77-EGFP) and B6;D2-Tg(Myh6*-mCherry)2Mik/J (α-MHC-mCherry) were purchased from the Jackson Laboratory. Nur77-EGFP mice express the fluorescent EGFP protein under the Nur77 promoter. α-MHC-mCherry mice express the red fluorescent Cherry protein under the mouse alpha myosin heavy-chain promoter in cardiomyocytes. We used 8-12 weeks old female mice in all experiments. MI was induced by left coronary artery ligation using a minimal thoracotomy model. Mice were initially anesthetized with 4% isoflurane and the surgical procedure was performed under 1.7% isoflurane. Following heart exposure outside of the thorax through a small thoracic incision, the left coronary artery was permanently ligated using silk 6.0 suture, the heart repositioned, and the thorax was closed with 6.0 prolene monofilament suture.
In an attempt to explain these intriguing results, we assessed the effects of the extended treatment on the presence of myeloid cells in blood, spleen, bone marrow and myocardium, with particular emphasis on cellular populations involved in myocardial repair. The cellular infiltration was analysed by flow cytometry on day 7, at the peak of the reparatory post-MI period. […]

COc1ncc(S(=O)(=O)Nc2cncc(Cl)c2O)cc1Br [ABR-238901, 5-bromo-N-(5-chloro-4-hydroxypyridin-3-yl)-6-methoxypyridine-3-sulfonamide]
Number of Ly6Chi monocytes in the bone marrow ([1]; 2 days treatment post-MI): increased | Numbers of proliferating BrdU+ Lin−Sca+Kit+CD150+CD48− hematopoietic stem cells ([1]; bone marrow, 24 h after BrdU): reduced | Numbers of macrophages in the heart ([1]; day 2 post-MI): lower | Numbers of monocytes in the bone marrow ([1]; day 2 post-MI): significantly higher | Numbers of monocytes in the spleen ([1]; day 2 post-MI): did not have a significant effect | Numbers of neutrophils in the spleen ([1]; day 2 post-MI): did not have a significant effect | Neutrophil counts in the bone marrow ([1]; day 2 post-MI, vs MI control): highly increased | Numbers of neutrophils in blood ([1]; day 2 post-MI, vs MI control): significantly lowered | Numbers of neutrophils in myocardium ([1]; day 2 post-MI, vs MI control): significantly lowered | Cardiac output ([2]; day 28): 11.26 mL/min | Left ventricular ejection fraction (LVEF) ([2]; day 28): 52% | Cardiac output ([2]; day 35): 12.03 mL/min | Left ventricular ejection fraction (LVEF) ([2]; day 35): 53% | Reduction of the number of macrophages having phagocytosed mCherry+ cardiomyocytes [3]: approximately 50% | mCherry mean fluorescent intensity (MFI) in MerTKhi and MerTKlo macrophages [3]: did not affect

— patent publication US20220378763A1, “COMPOUND FOR TREATMENT OF ACUTE INFLAMMATION IN THE MYOCARDIUM” (CALPROTECT AB, priority 2019, published 2022)
